# From US11357825B2, “Means for treating cardiovascular disease” (Universitaetsklinikum Hamburg-Eppendorf, priority 2017, dated 2022)
# Tests used:
# [1] = tested on: adult rat ventricular cardiomyocytes; experiment: cell contractility assay, edge detection method (IonOptix); format: cell-based; details: atenolol 100 nM, 20 min; 1 Hz pacing; with and without 10 nM isoproterenol
# Experimental: FIG. 7. Experimental data for cardiomyocyte hypertrophy (A) and cell contractility (B) assays performed with freshly isolated adult rat ventricular cardiomyocytes (CM) using atenolol coated nanoparticles (Atenolol NP) and control nanoparticles.
# Freshly isolated adult rat ventricular CMs were incubated for 20 min with atenolol (100 nM), atenolol coated or control nanoparticles (both at 30 nM) and cell contractility was measured using edge detection method (IonOptix) at 1 Hz pacing frequency with and without stimulation with 10 nM isoproterenol.
# β1-AR = β1-AR (Homo sapiens, UniProt P08588); details: HEK293 cells stably expressing β1-AR; pretreatment 20 min with 30 nM; ISO 0.1 nM
# β1-AR, sequence (P08588 whole entry): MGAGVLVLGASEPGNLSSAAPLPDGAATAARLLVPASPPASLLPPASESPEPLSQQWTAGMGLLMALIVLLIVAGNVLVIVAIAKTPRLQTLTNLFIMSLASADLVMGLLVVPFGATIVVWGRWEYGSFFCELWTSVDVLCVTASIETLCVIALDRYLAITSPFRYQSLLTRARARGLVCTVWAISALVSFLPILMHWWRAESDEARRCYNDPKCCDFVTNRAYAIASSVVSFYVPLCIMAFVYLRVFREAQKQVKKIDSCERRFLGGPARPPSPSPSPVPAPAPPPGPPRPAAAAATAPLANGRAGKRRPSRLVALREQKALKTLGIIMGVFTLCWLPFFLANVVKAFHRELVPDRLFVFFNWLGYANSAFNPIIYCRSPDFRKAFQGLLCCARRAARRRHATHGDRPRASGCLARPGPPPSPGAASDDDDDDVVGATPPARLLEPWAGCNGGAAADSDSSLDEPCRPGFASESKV
# Description: Experimental data with HEK293 cells stably expressing β1-AR and the cAMP biosensor Epac1-camps.
smiles,measurement,setting,value
CC(C)NCC(O)COc1ccc(CC(N)=O)cc1 (centres unmarked) [atenolol],cell contractility,[1],decrease cell contractility
same,inhibition of ISO-induced cAMP increase (CFP/YFP ratio),β1-AR,efficacious in blocking β1-AR dependent cAMP synthesis
